In US20250382261A1 (The Broad Institute, Inc., priority 2021, published 2025):

Assays:
[1] = test system: K. pneumoniae (ATCC 43816, expressing pGDP2:mcr-1); experiment: Checkerboard potentiation assay with novobiocin, mcr-1 strain; assay type: cell-based; conditions: mcr-1 expressing K. pneumoniae
Experimental: The following bacterial strains were used within this study; A. baumannii (ATCC 17978), K. pneumoniae (ATCC 43816), K. pneumoniae (ATCC 43816, expressing pGDP2:mcr-1), P. aeruginosa (PA01). Bacterial growth was in cation-adjusted Mueller-Hinton broth (MHB) at 37° C., and inoculum was prepared according to CLSI protocol (CLSI 2015).
Checkerboard analyses were conducted with each drug serially diluted at eight concentrations to create an 8×8 matrix. At least two biological replicates were done for each combination, and the means were used for FIC calculation. The FIC for each drug was calculated by dividing the concentration of the drug in the presence of codrug in a combination for a well showing <10% growth by the MIC for that drug alone. The FIC index (FICI) is the sum of the two FICs, with an FIC index≤0.5 deemed synergistic.

[2] = In vitro metabolic stability, mouse; assay type: in vitro ADME; conditions: read-out: In vitro metabolic stability (t1/2, min), mouse
HepG2 cells = conditions: human, 72 h, 75 µM
[3] = In vitro metabolic stability, dog; assay type: in vitro ADME; conditions: read-out: In vitro metabolic stability (t1/2, min), dog

N=C(N)c1ccc(OCCN(CCOc2ccc(C(=N)N)cc2)c2ccccc2)cc1 [Analog P35]
FICI with novobiocin against K. pneumoniae expressing mcr-1 [1]: 0.12
half-life [2]: 91.6 min
Phospholipidosis MR, percentage in brackets (HepG2 cells): 104%
half-life [3]: 137 min
